Laboratory results from the NIST ThermoML archive (doi:10.1021/je800110r).

Conditions: 293.15 K, Liquid, Vibrating tube method

CCCCCCCCCC [decane]
Conditions	mass density [kg/m3]
28146 kPa	749.4
28177 kPa	749.5
28205 kPa	749.5
28236 kPa	749.5
28261 kPa	749.4
28289 kPa	749.5
28321 kPa	749.5
28349 kPa	749.5
28373 kPa	749.5
28405 kPa	749.5
28425 kPa	749.6
28454 kPa	749.5
28482 kPa	749.6
28507 kPa	749.6
28527 kPa	749.6
28552 kPa	749.5
28597 kPa	749.7
28622 kPa	749.7
28643 kPa	749.6
28663 kPa	749.8
28687 kPa	749.7
28712 kPa	749.7
28749 kPa	749.8
28770 kPa	749.7
28807 kPa	749.8
28836 kPa	749.7
28865 kPa	749.9
28886 kPa	749.9
28919 kPa	749.9
28945 kPa	749.9
28974 kPa	749.9
28999 kPa	749.9
29029 kPa	749.9
29050 kPa	749.9
29084 kPa	749.9
29114 kPa	750
29149 kPa	749.9
29175 kPa	750
29213 kPa	750
29232 kPa	750.1
29263 kPa	750.1
29295 kPa	750.1
29326 kPa	750.1
29350 kPa	750.1
29376 kPa	750.2
29396 kPa	750.1
29419 kPa	750.1
29439 kPa	750.2
29470 kPa	750.3
29494 kPa	750.2
29518 kPa	750.3
29549 kPa	750.2
29574 kPa	750.3
29600 kPa	750.3
29620 kPa	750.3
29645 kPa	750.3
29668 kPa	750.3
29701 kPa	750.3
29724 kPa	750.4
29760 kPa	750.4
29780 kPa	750.5
29804 kPa	750.3
29828 kPa	750.5
29852 kPa	750.4
29877 kPa	750.4
29904 kPa	750.4
29931 kPa	750.5
29960 kPa	750.4
29996 kPa	750.5
30021 kPa	750.6
30041 kPa	750.6
30078 kPa	750.6
30098 kPa	750.5
30123 kPa	750.6
30144 kPa	750.7
30168 kPa	750.7
30194 kPa	750.7
30219 kPa	750.7
30248 kPa	750.7
30273 kPa	750.8
30294 kPa	750.7
30328 kPa	750.8
30358 kPa	750.8
30393 kPa	750.9
30419 kPa	750.8
30455 kPa	750.9
30479 kPa	750.8
30506 kPa	750.8
30546 kPa	750.8
30560 kPa	750.8
30576 kPa	750.9
30591 kPa	750.9
30604 kPa	751
30620 kPa	750.9
30641 kPa	750.9
30659 kPa	750.9
30682 kPa	751
30703 kPa	751.1
30721 kPa	751
30739 kPa	751
30752 kPa	751
30771 kPa	751
30795 kPa	751
30813 kPa	751.1
30826 kPa	751.1
30845 kPa	751.1
30866 kPa	751
30887 kPa	751.1
30908 kPa	751.1
30924 kPa	751
30942 kPa	751.1
30955 kPa	751.1
30977 kPa	751.1
30995 kPa	751.1
31014 kPa	751.1
31028 kPa	751.2
31044 kPa	751.1
31057 kPa	751.1
31074 kPa	751.2
31090 kPa	751.2
31106 kPa	751.2
31130 kPa	751.3
31147 kPa	751.3
31168 kPa	751.3
31188 kPa	751.3
31207 kPa	751.3
31224 kPa	751.3
31243 kPa	751.2
31260 kPa	751.3
31279 kPa	751.3
31295 kPa	751.4
31314 kPa	751.3
31339 kPa	751.3
31356 kPa	751.4
31375 kPa	751.4
31391 kPa	751.3
31412 kPa	751.3
31425 kPa	751.4
31441 kPa	751.4
31455 kPa	751.5
31472 kPa	751.3
31489 kPa	751.4
31503 kPa	751.5
31520 kPa	751.5
31542 kPa	751.4
31564 kPa	751.5
31581 kPa	751.5
31601 kPa	751.5
31615 kPa	751.4
31636 kPa	751.4
31651 kPa	751.6
31670 kPa	751.5
31687 kPa	751.5
31710 kPa	751.7
31724 kPa	751.8
31738 kPa	751.5
31755 kPa	751.5
31774 kPa	751.6
31797 kPa	751.5
31811 kPa	751.6
31831 kPa	751.7
31847 kPa	751.7
31864 kPa	751.7
31885 kPa	751.7
31907 kPa	751.7
31928 kPa	751.6
31944 kPa	751.6
31965 kPa	751.9
31989 kPa	751.7
32005 kPa	751.8
32027 kPa	751.7
32043 kPa	751.7
32061 kPa	751.8
32081 kPa	751.9
32100 kPa	751.8
32124 kPa	751.9
32148 kPa	751.9
32167 kPa	751.8
32191 kPa	751.8
32207 kPa	751.9
32230 kPa	751.9
32246 kPa	751.8
32266 kPa	751.9
32282 kPa	751.8
32299 kPa	751.9
32324 kPa	752
32345 kPa	752
32362 kPa	751.9
32379 kPa	751.9
32400 kPa	751.9
32420 kPa	752
32445 kPa	752
32462 kPa	751.9
32478 kPa	752
32498 kPa	752
32520 kPa	752.1
32537 kPa	751.9
32555 kPa	752.1
32572 kPa	752.1
32592 kPa	752.2
32612 kPa	752
32637 kPa	752.2
32657 kPa	752.1
32673 kPa	752.1
32690 kPa	752.1
32716 kPa	752.1
32733 kPa	752.2
32750 kPa	752.1
32770 kPa	752.1
32790 kPa	752.2
32808 kPa	752.2
32825 kPa	752.3
32848 kPa	752.2
32865 kPa	752.4
32888 kPa	752.3
32911 kPa	752.2
32930 kPa	752.4
32953 kPa	752.4
32972 kPa	752.4
32993 kPa	752.3
33014 kPa	752.3
33038 kPa	752.3
33061 kPa	752.4
33080 kPa	752.4
33103 kPa	752.3
33132 kPa	752.4
33150 kPa	752.5
33180 kPa	752.4
33203 kPa	752.4
33218 kPa	752.4
33239 kPa	752.5
33260 kPa	752.3
33279 kPa	752.4
33304 kPa	752.5
33334 kPa	752.5
33349 kPa	752.4
33373 kPa	752.6
33397 kPa	752.7
33416 kPa	752.7
33440 kPa	752.5
33465 kPa	752.6
33484 kPa	752.5
33514 kPa	752.6
33536 kPa	752.6
33555 kPa	752.6
33576 kPa	752.6
33606 kPa	752.7
33631 kPa	752.8
33649 kPa	752.6
33667 kPa	752.8
33692 kPa	752.7
33710 kPa	752.8
33738 kPa	752.8
33760 kPa	752.7
33791 kPa	752.9
33807 kPa	752.8
33829 kPa	752.8
33848 kPa	752.8
33896 kPa	752.8
33919 kPa	752.9
33934 kPa	752.9
33961 kPa	753
33976 kPa	752.9
33992 kPa	752.9
34010 kPa	752.9
34029 kPa	752.9
34050 kPa	753
34069 kPa	753
34090 kPa	752.9
34112 kPa	753
34129 kPa	753.1
34148 kPa	753
34176 kPa	753
34198 kPa	752.9
